Experimental data taken from patent publication US4962224A, “N-naphthoylglycines as aldose reductase inhibitors” (American Home Products Corporation, priority 1989, dated 1990).
“And” between values parts separate entries of the source, which are not always exact repeats. Equal values may be shown once. Read-outs that look alike come from different tables or passages of the source. Each block holds one molecule with its values, some of them ahead of it.

Tests used:
aldose reductase = target: T1, aldose reductase (Bos taurus, UniProt P16116); assay: aldose reductase inhibiting effects in vitro (Table I, IN VITRO); format: biochemical, bovine (lens); conditions: for inhibition at 0.04 µM / inhibition at 0.1 µM / inhibition at 1 µM / inhibition at 10 µM: read-out: % Inhibition IN VITRO
T1 construct: preparation of the enzyme from bovine lens; from tissue; host or cells: bovine lens
From the text: In the present case the procedure of Hayman and Kinoshita was modified in that the final chromatography step was omitted in the preparation of the enzyme from bovine lens. The results are tabulated in Table I under the heading IN VITRO.

dulcitol accumulation = assay: lowering of dulcitol (galactitol) accumulation in tissues of galactosemic rats (Table I, IN VIVO); design: species or system rat (Sprague-Dawley); conditions: galactosemic rats, 4 days; for % Lowering dulcitol accumulation IN VIVO, D: diaphragm; for % Lowering dulcitol accumulation IN VIVO, L: lens
From the text: Such experiments are exemplified hereinbelow after the listing of the following general comments pertaining to these experiments:
(a) Four or more groups of six male rats, […], Sprague-Dawley strain, were used. The first group, the control group, was fed a mixture of laboratory chow (rodent Laboratory Chow, Purina) and […] at 20% (w/w %) concentration. […] The test compound was either admixed to the diet or administered by gavage. In experiments involving compound administration in the diet, the average dose administered was calculated from the actual food intake of the animals in each group. The concentration of galactose in the diet of the treated groups was the same as that for the untreated galactosemic group.
(b) After four days, the animals were killed by decapitation. The eyeballs were removed and punctured with a razor blade; the freed lenses were rolled gently on filter paper and weighed. The sciatic nerves were dissected as completely as possible and weighed. Both tissues when frozen can be kept up to two weeks before being analyzed for galactitol.
Only two minor reagent changes were made: (a) the rinsing mixture was an aqueous 5% (w/v) trichloroacetic acid solution and (b) the stock solution was prepared by dissolving 25 mg of dulcitol in 100 mL of an aqueous trichloroacetic acid solution. [N.B.: For each experiment the average value found in the tissue from rats fed the glucose diet was subtracted from the individual values found in the corresponding tissue in galactose-fed rats to obtain the amount of polyol accumulated.]
The figures under L, N, and D represent the percentage decrease of galactitol accumulation in the tissues of the lens, sciatic nerve, and diaphragm, respectively, for treated rats as compared to untreated rats.

SMILES: COc1ccc2c(C(=S)N(C)CC(=O)O)c(OCc3ccccc3)ccc2c1C(F)(F)F
- inhibition at 0.04 µM (aldose reductase; 4 × 10^-8 M): 45%
- inhibition at 0.1 µM (aldose reductase; 10^-7 M): 84%
- inhibition at 1 µM (aldose reductase): 96%
- inhibition at 10 µM (aldose reductase): 96%

- inhibition at 0.04 µM (aldose reductase; 4 × 10^-8 M): 36%
- inhibition at 10 µM (aldose reductase; 10^-5 M): 90%
- inhibition at 1 µM (aldose reductase; 10^-6 M): 87%
- inhibition at 0.1 µM (aldose reductase; 10^-7 M): 63%
SMILES: COc1ccc2c(C(=O)N(C)CC(=O)O)c(Cl)ccc2c1C(F)(F)F [Cl O OH, N-[[2-Chloro-6-methoxy-5-(trifluoromethyl)-1-naphthalenyl]carbonyl]-N-methylglycine]

- inhibition at 10 µM (aldose reductase; 10^-5 M): 9%
- inhibition at 1 µM (aldose reductase; 10^-6 M): 0%
SMILES: COc1ccc2c(C(=O)N(C)CC(N)=O)c(Cl)ccc2c1C(F)(F)F [Example 2, [[[2-Chloro-6-methoxy-5-(trifluoromethyl)-1-naphthalenyl]carbonyl]methylamino]acetamide]
- % Lowering dulcitol accumulation IN VIVO, D (dulcitol accumulation; 24 mg/kg): 53%
- % Lowering dulcitol accumulation IN VIVO, L (dulcitol accumulation; 24 mg/kg): N.S.

SMILES: COc1ccc2c(C(=O)N(C)CC(=O)O)c(OCC(F)(F)F)ccc2c1C(F)(F)F [Example 3, N-[[6-Methoxy-2-(2,2,2-trifluoroethoxy)-5-(trifluoromethyl)-1-naphthalenyl]carbonyl]-N-methylglycine]
- inhibition at 0.04 µM (aldose reductase; 4 × 10^-8 M): 32%
- inhibition at 1 µM (aldose reductase; 10^-6 M): 91%
- inhibition at 0.1 µM (aldose reductase; 10^-7 M): 67%
- inhibition at 10 µM (aldose reductase): 96%

SMILES: CCOc1ccc2c(C(F)(F)F)c(OC)ccc2c1C(=S)N(C)CC(=O)O [Example 4, N-[[2-Ethoxy-6-methoxy-5-(trifluoromethyl)-1-naphthalenyl]thioxomethyl]-N-methylglycine]
- inhibition at 0.04 µM (aldose reductase; 4 × 10^-8 M): 50%
- inhibition at 1 µM (aldose reductase; 10^-6 M): 95%
- inhibition at 0.1 µM (aldose reductase; 10^-7 M): 87%
- inhibition at 10 µM (aldose reductase): 98%
- % Lowering dulcitol accumulation IN VIVO, D (dulcitol accumulation; 28 mg/kg): 85%
- % Lowering dulcitol accumulation IN VIVO, L (dulcitol accumulation; 28 mg/kg): N.S.

SMILES: COc1ccc2c(C(=S)N(C)CC(=O)O)c(OCC(F)(F)F)ccc2c1C(F)(F)F [Example 5, N-[[6-Methoxy-2-(2,2,2-trifluoroethoxy)-5-(trifluoromethyl)-1-naphthalenyl]thioxomethyl]-N-methylglycine]
- inhibition at 0.04 µM (aldose reductase; 4 × 10^-8 M): 49%
- inhibition at 1 µM (aldose reductase; 10^-6 M): 95%
- inhibition at 0.1 µM (aldose reductase; 10^-7 M): 87%
- inhibition at 10 µM (aldose reductase): 99%
- % Lowering dulcitol accumulation IN VIVO, D (dulcitol accumulation; 26 mg/kg): 88%
- % Lowering dulcitol accumulation IN VIVO, L (dulcitol accumulation; 26 mg/kg): N.S.

SMILES: CCOc1ccc2c(C(F)(F)F)c(OC)ccc2c1C(=O)N(C)CC(=O)O [Example 6, N-[[2-Ethoxy-6-methoxy-5-(trifluoromethyl)-1-naphthalenyl]carbonyl]-N-methylglycine]
- inhibition at 0.04 µM (aldose reductase; 4 × 10^-8 M): 33%
- inhibition at 10 µM (aldose reductase; 10^-5 M): 89%
- inhibition at 1 µM (aldose reductase; 10^-6 M): 89%
- inhibition at 0.1 µM (aldose reductase): 65%
- % Lowering dulcitol accumulation IN VIVO, D (dulcitol accumulation; 49 mg/kg): 57%
- % Lowering dulcitol accumulation IN VIVO, L (dulcitol accumulation; 49 mg/kg): N.S.

SMILES: CCCOc1ccc2c(C(F)(F)F)c(OC)ccc2c1C(=O)N(C)CC(=O)O [Example 7, N-[[6-Methoxy-2-propoxy-5-(trifluoromethyl)-1-naphthalenyl]carbonyl]-N-methylglycine]
- inhibition at 0.04 µM (aldose reductase; 4 × 10^-8 M): 21%
- inhibition at 0.1 µM (aldose reductase): 46%
- % Lowering dulcitol accumulation IN VIVO, D (dulcitol accumulation; 50 mg/kg): 57%
- % Lowering dulcitol accumulation IN VIVO, L (dulcitol accumulation; 50 mg/kg): N.S.

SMILES: COc1ccc2c(C(=O)N(C)CC(=O)O)c(Oc3ccccc3)ccc2c1C(F)(F)F [Example 8, N-[[6-Methoxy-2-phenoxy-5-(trifluoromethyl)-1-naphthalenyl]carbonyl]-N-methylglycine]
- inhibition at 0.04 µM (aldose reductase; 4 × 10^-8 M): 50%
- inhibition at 0.1 µM (aldose reductase; 10^-7 M): 83%
- inhibition at 1 µM (aldose reductase): 93%
- inhibition at 10 µM (aldose reductase): 93%
- % Lowering dulcitol accumulation IN VIVO, D (dulcitol accumulation; 48 mg/kg): 67%
- % Lowering dulcitol accumulation IN VIVO, L (dulcitol accumulation; 48 mg/kg): N.S.

- inhibition at 10 µM (aldose reductase; 10^-5 M): 95%
- inhibition at 1 µM (aldose reductase; 10^-6 M): 90%
- inhibition at 0.1 µM (aldose reductase; 10^-7 M): 63%
SMILES: COc1ccc2c(C(=O)N(C)CC(=O)O)c(Br)ccc2c1C(F)(F)F [Example 9, N-[[2-Bromo-6-methoxy-5-(trifluoromethyl)-1-naphthalenyl]carbonyl]-N-methylglycine]
- % Lowering dulcitol accumulation IN VIVO, D (dulcitol accumulation; 97 mg/kg): 84%
- % Lowering dulcitol accumulation IN VIVO, L (dulcitol accumulation; 97 mg/kg): 8%

SMILES: COc1ccc2c(C(=S)N(C)CC(=O)O)c(Cl)ccc2c1C(F)(F)F [Example 10, N-[[2-Chloro-6-methoxy-5-(trifluoromethyl)-1-naphthalenyl]thioxomethyl]-N-methylglycine]
- inhibition at 0.04 µM (aldose reductase; 4 × 10^-8 M): 51%
- inhibition at 10 µM (aldose reductase; 10^-5 M): 95%
- inhibition at 1 µM (aldose reductase; 10^-6 M): 91%
- inhibition at 0.1 µM (aldose reductase; 10^-7 M): 81%
- % Lowering dulcitol accumulation IN VIVO, D (dulcitol accumulation; 24 mg/kg): 90%
- % Lowering dulcitol accumulation IN VIVO, L (dulcitol accumulation; 24 mg/kg): N.S.

SMILES: CCCCOc1ccc2c(C(F)(F)F)c(OC)ccc2c1C(=O)N(C)CC(=O)O [Example 12, N-[[2-Butoxy-6-methoxy-5-(trifluoromethyl)-1-naphthalenyl]carbonyl]-N-methylglycine]
- inhibition at 0.04 µM (aldose reductase; 4 × 10^-8 M): 25%
- inhibition at 10 µM (aldose reductase; 10^-5 M): 92%
- inhibition at 1 µM (aldose reductase; 10^-6 M): 88%
- inhibition at 0.1 µM (aldose reductase; 10^-7 M): 42%
- % Lowering dulcitol accumulation IN VIVO, D (dulcitol accumulation; 49 mg/kg): 55%
- % Lowering dulcitol accumulation IN VIVO, L (dulcitol accumulation; 49 mg/kg): N.S.

- inhibition at 10 µM (aldose reductase; 10^-5 M): 8%
- inhibition at 1 µM (aldose reductase; 10^-6 M): 2%
SMILES: CCOC(=O)NC(=O)CN(C)C(=O)c1c(F)ccc2c(C(F)(F)F)c(OC)ccc12 [F O NHCO2 C2 H5, N-[2-[(Ethoxycarbonyl)amino]-2-oxoethyl]-2-fluoro-6-methoxy-N-methyl-5-(trifluoromethyl)-1-naphthalenecarboxamide]
- % Lowering dulcitol accumulation IN VIVO, D (dulcitol accumulation; 22 mg/kg): 55%
- % Lowering dulcitol accumulation IN VIVO, L (dulcitol accumulation; 22 mg/kg): N.S.

SMILES: COc1ccc2c(C(=O)N(C)CC(=O)O)c(F)ccc2c1C(F)(F)F [F O OH, N-[[2-Fluoro-6-methoxy-5-(trifluoromethyl)-1-naphthalenyl]carbonyl]-N-methylglycine]
- inhibition at 0.04 µM (aldose reductase; 4 × 10^-8 M): 49%
- inhibition at 0.1 µM (aldose reductase; 10^-7 M): 80%
- inhibition at 1 µM (aldose reductase): 93%
- inhibition at 10 µM (aldose reductase): 94%
- % Lowering dulcitol accumulation IN VIVO, L (dulcitol accumulation; 52 mg/kg): 15%
- % Lowering dulcitol accumulation IN VIVO, L (dulcitol accumulation; 100 mg/kg): 17%

- inhibition at 10 µM (aldose reductase; 10^-5 M): 2%
- inhibition at 1 µM (aldose reductase; 10^-6 M): 6%
SMILES: COc1ccc2c(C(=S)N(C)CC(N)=O)c(F)ccc2c1C(F)(F)F [F S NH2, [[[2-Fluoro-6-methoxy-5-(trifluoromethyl)-1-naphthalenyl]thioxomethyl]methylamino]acetamide]

SMILES: COc1ccc2c(C(=S)N(C)CC(=O)O)c(F)ccc2c1C(F)(F)F [F S OH, N-[[2-Fluoro-6-methoxy-5-(trifluoromethyl)-1-naphthalenyl]thioxomethyl]-N-methylglycine]
- inhibition at 0.04 µM (aldose reductase; 4 × 10^-8 M): 45%
- inhibition at 1 µM (aldose reductase): 94%
- inhibition at 10 µM (aldose reductase): 99%
- % Lowering dulcitol accumulation IN VIVO, D (dulcitol accumulation; 4.8 mg/kg): 86%
- % Lowering dulcitol accumulation IN VIVO, D (dulcitol accumulation; 25 mg/kg): 93%
- % Lowering dulcitol accumulation IN VIVO, L (dulcitol accumulation; 4.8 mg/kg): N.S.
- % Lowering dulcitol accumulation IN VIVO, L (dulcitol accumulation; 25 mg/kg): 23%

- inhibition at 10 µM (aldose reductase; 10^-5 M): 8%
- inhibition at 1 µM (aldose reductase; 10^-6 M): 1%
SMILES: COc1ccc2c(C(=O)N(C)CC(N)=O)c(OCC(F)(F)F)ccc2c1C(F)(F)F [OCH2 CF3 O NH2]
- % Lowering dulcitol accumulation IN VIVO, D (dulcitol accumulation; 24 mg/kg): N.S.
- % Lowering dulcitol accumulation IN VIVO, L (dulcitol accumulation; 24 mg/kg): N.S.

SMILES: COc1ccc2c(C(F)(F)F)c(OC)ccc2c1C(=O)N(C)CC(=O)O [OCH3 O OH]
- inhibition at 0.04 µM (aldose reductase; 4 × 10^-8 M): 56%
- inhibition at 10 µM (aldose reductase; 10^-5 M): 95%
- % Inhibition IN VITRO (aldose reductase; 10^-6 M): 92%
- inhibition at 1 µM (aldose reductase; 10^-6 M): 95%
- % Inhibition IN VITRO (aldose reductase; 10^-7 M): 91% and 62%
- inhibition at 0.04 µM (aldose reductase): 38%
- inhibition at 10 µM (aldose reductase): 99%
- % Lowering dulcitol accumulation IN VIVO, D (dulcitol accumulation; 26 mg/kg): 71%
- % Lowering dulcitol accumulation IN VIVO, D (dulcitol accumulation; 53 mg/kg): N.S.
- % Lowering dulcitol accumulation IN VIVO, L (dulcitol accumulation; 26 mg/kg): N.S.
- % Lowering dulcitol accumulation IN VIVO, L (dulcitol accumulation; 53 mg/kg): N.S.
